Measurements reported in patent US20220213198A1, “METHOD OF TREATMENT” (The Council of the Queensland Institute of Medical Research, priority 2019, published 2022).

What was measured:
MAIT cells = experiment: Ex vivo MAIT cell activation and cytokine profile in tumor-bearing lungs; design: species or system mouse; conditions: lungs of mice injected with treated vs DMSO-treated B16F10, day 5
Description: FIG. 4. Upregulation of MR1 on B16F10 activates MAIT cells to suppress NK cell effector function through IL-17. (A) Schematic to analyze MAIT or NK cell effector function in the lungs of C57BL/6 WT or MR1^−/− mice injected with 5-OP-RU- or DMSO-stimulated B16F10 melanoma cells. On day 5 relative to tumor inoculation, lungs were harvested and stimulated with PMA/ionomycin plus protein transport inhibitors for 4 hours and MAIT or NK cell function was assessed by flow cytometry. (B) The proportion of CD69^+ MAIT cells amongst total MAIT cells (B220^− F4/80^− MR1-5-OP-RU tetramer^+ TCRβ^+) in naïve or tumor-bearing lungs. Data presented as mean±SEM. (C) Representative dot plot of IL-17 expression by MAIT cells. The (D) proportion of IL-17^+ MAIT cells amongst total MAIT cells in the lungs of naïve and tumor-bearing mice as indicated. Data presented as mean±SEM. (E) Representative dot plot of TNF expression by MAIT cells. The (F) proportion of TNF MAIT cells and (G) IFNγ^+ MAIT cells amongst total MAIT cells in the lungs of naïve and tumor-bearing mice as indicated. (H, I) On day 5 relative to tumor inoculation, lungs were harvested (n=6/group) and stimulated with PMA/ionomycin plus protein transport inhibitors for 3 hours and NK cell function was assessed by flow cytometry. The proportion of IFNγ^+ NK cells and CD107a^+ NK cells amongst total NK cells (NKp46^+ NK1.1^+ TCRβ^− CD45.2^+) in tumor-bearing C57BL/6 WT or IL-17^−/− mice. Data presented as mean±SEM. (J) Groups of WT or MR1^−/− mice (n=4-6/group) were injected i.v. with 1×10^5 B16F10 melanoma cells. In some groups, sorted MAIT cells (2×10^5 cells/mouse) from C57BL/6 WT or IL-17A^−/− mice were i.v. injected into the indicated groups of mice one day before tumor inoculation. On day 14 relative to tumor cell inoculation, lungs were harvested and the metastatic burden was quantified by counting colonies on the lung surface. […] Significant differences between groups as indicated by crossbars were determined using a one-way ANOVA followed by Tukey's post-hoc test (B, D, F, J), or a Mann-Whitney test (H, I), *p<0.05, **p<0.01, ***p<0.001, ****p<0.0001.
Naïve or tumor-bearing lung single-cell suspensions were generated as previously described (Blake et al., 2016) and incubated with anti-CD16/32 (2.4G2) to block Fc receptors on ice prior to surface staining with the antibodies. […] All data were collected on a Fortessa 4 flow cytometer (BD Biosciences) and analyzed with FlowJo v10 software (TreeStar, Inc.).
Single cell suspensions from lungs of the indicated groups were incubated in a 96-well U-bottom plate in complete RPMI 1640 media. […] Briefly, anti-CD107a (1D4B, BioLegend) antibody was added to single cell suspension during the stimulation period before these cells were surface stained and analyzed by flow cytometry.

[1] = molecular target: T1, surface MR1 on mouse tumor cell lines (Mus musculus, UniProt Q8HWB0); experiment: MR1 surface expression on mouse tumor cell lines by flow cytometry; type: cell-based; conditions: for MR1 cell surface expression: 100 nM, 4 hours
T1 construct: endogenous in cells
Description: FIG. 2. Up-regulation of MR1 on B16F10 cells increases lung metastases that is dependent on MAIT cells. (A) The schematic and timeline of expanding MAIT cells from splenocytes derived from C57BL/6 WT mice with IL-2 and 5-OP-RU, for sorting and adoptive transfer into tumor-bearing mice. (B, C) Groups of WT or MR1^−/− or Rag2cγ^−/− mice (n=5-6/group) were injected i.v. with (B) 1×10^5 or (C) 1×10^4 B16F10 melanoma cells. In some groups, sorted MAIT or T conventional cells (cT) (non-MAIT αβ^+ T cells) (2×10^5 cells/mouse) from C57BL/6 (B) WT or (C) TCRδ^−/− mice were i.v. injected into the indicated groups of mice one day before tumor inoculation. (C) One group of mice received i.v injection of media alone as a control. (B, C) On day 14 relative to tumor cell inoculation, lungs were harvested and the metastatic burden was quantified by counting colonies on the lung surface. Data presented as mean±SEM. (D) B16F10 or LWT1 melanoma cells were stimulated in vitro with DMSO or 5-OP-RU (100 nM) for 4 hours before cell surface MR1 expression was determined by flow cytometry. Groups of C57BL/6 WT or MR1^−/− mice (n=5-6/group) were i.v. injected with (E) 1×10^5 B16F10 or (F) 5×10^5 LWT1 cells melanoma cells pulsed with DMSO or 5-OP-RU (100 nM, 4 hours). Fourteen days later relative to tumor cell inoculation, lungs were harvested and the metastatic burden was quantified by counting colonies on the lung surface. Data presented as mean±SEM. Experiments performed once for (B, C, F) and three times for (D, E) with one representative experiment shown. Significant differences between groups as indicated by crossbars were determined using a one-way ANOVA followed by Tukey's post-hoc test (B, E, F), *p<0.05, **p<0.01, ****p<0.0001
Naïve or tumor-bearing lung single-cell suspensions were generated as previously described (Blake et al., 2016) and incubated with anti-CD16/32 (2.4G2) to block Fc receptors on ice prior to surface staining with the antibodies. The following antibodies were used for FACs analysis: anti-CD45.2 (104), anti-TCRβ (H57-597), anti-NK1.1 (PK136), anti-NKp46 (29A1.4), anti-CD45R (B220, RA3-6B2), anti-F4/80 (BM8), anti-CD69 (H1.2F3) (all from BioLegend, eBioscience), and MR1 tetramers. For intracellular cytokine staining, cells were surface stained as described above and then fixed and permeabilized with a cytofix/cytoperm kit (BD Biosciences) followed by staining with anti-IFNγ (XMG1.2), anti-TNF (MP6-XT22), anti-IL-17A (TC11-18H10.1) or isotype (eBio299Arm) antibody (all from BioLegend). All data were collected on a Fortessa 4 flow cytometer (BD Biosciences) and analyzed with FlowJo v10 software (TreeStar, Inc.).
MR1 mRNA transcripts are present in different tissues and cell lines from mice and humans. […] In contrast, whether mouse tumor cell lines express MR1 has not previously been examined. […] Basally, the level of MR1 was almost undetectable on the surface of all tumor cell lines examined (FIG. 2D). […] The kinetics of MR1 upregulation on B16F10 cells was similar to what was previously reported for human C1R cells (B-cell lymphoblastoid cell line) (McWilliam et al., 2016). […] Next, the impact of up-regulation of MR1 on B16F10 or LWT1 prior to i.v injection to WT or MR1−/− mice on the number of lung metastases was assessed.

T1 sequence (Q8HWB0 19-341): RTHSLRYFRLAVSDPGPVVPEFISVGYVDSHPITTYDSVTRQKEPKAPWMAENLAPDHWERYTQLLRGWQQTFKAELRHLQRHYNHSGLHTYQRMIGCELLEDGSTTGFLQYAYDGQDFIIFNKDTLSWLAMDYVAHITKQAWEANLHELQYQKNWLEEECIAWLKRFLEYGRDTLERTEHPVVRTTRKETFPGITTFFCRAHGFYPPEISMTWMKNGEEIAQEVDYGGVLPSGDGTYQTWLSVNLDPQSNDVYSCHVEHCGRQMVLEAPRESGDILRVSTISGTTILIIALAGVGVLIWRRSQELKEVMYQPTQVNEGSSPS
T1 sequence (P01887 21-119 partner): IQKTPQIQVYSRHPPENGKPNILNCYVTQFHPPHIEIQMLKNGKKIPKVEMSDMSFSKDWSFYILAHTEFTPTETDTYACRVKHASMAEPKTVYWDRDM

For CC(=O)C=Nc1c(NC[C@H](O)[C@H](O)[C@H](O)CO)[nH]c(=O)[nH]c1=O [5-OP-RU], which “proportion of MAIT cells producing IFNγ” value (MAIT cells) is on record?
Its value is “did not change”.

What about the “proportion of MAIT cells that expressed CD69” value (MAIT cells) of the same compound?
The value was “increased proportion”.

What about the “proportion of MAIT cells that expressed IL-17A” value (MAIT cells) of the same compound?
The value was “increased proportion”.

And the “proportion of MAIT cells that expressed TNF” value (MAIT cells)?
The value was “increased proportion”.

What about the “lowest ligand concentration that upregulated MR1” value ([1]; B16F10, dose titration) of the same compound?
Its value is 10 nM.

What about the “MR1 cell surface expression” value ([1]; B16F10 melanoma cells) of the same compound?
The value was “substantially upregulated”.

What about the “MR1 cell surface expression” value ([1]; LWT1 melanoma cells) of the same compound?
Its value is “substantially upregulated”.

And the “MR1 cell surface expression” value ([1]; MC38 parental or OVA, HcMel3, HcMel12, SM1WT1, MCA1956 cells)?
Its value is “upregulated to a varying extent”.

What about the “MR1 cell surface expression” value ([1]; RM-1, 4T1.2 or 3LL carcinoma cells) of the same compound?
Its value is “not upregulated”.
